{"source": "ChEMBL document CHEMBL4376834", "about": "“Discovery of 4H-Chromen-4-one Derivatives as a New Class of Selective Rho Kinase (ROCK) Inhibitors, which Showed Potent Activity in ex Vivo Diabetic Retinopathy Models” (J Med Chem, 2019)", "key": {"[1]": {"assay": "Solubility of compound in miniQ water at 1 mg at 37 degreeC incubated under shaking conditions for overnight by LC-MS analysis", "type": "physicochemical"}, "[2]": {"target": "Tyrosine-protein kinase ABL1 (Homo sapiens, UniProt P00519, H396P)", "assay": "Inhibition of human recombinant ABL1 H396P mutant (27 to end residues) using EAIYAAPFAKKK as substrate incubated for 40 mins in presence of [gamma-33P]ATP by radiometry scintillation counting analysis assay"}, "[3]": {"target": "Tyrosine-protein kinase ABL2 (Homo sapiens, UniProt P42684)", "sequence (P42684 whole entry)": "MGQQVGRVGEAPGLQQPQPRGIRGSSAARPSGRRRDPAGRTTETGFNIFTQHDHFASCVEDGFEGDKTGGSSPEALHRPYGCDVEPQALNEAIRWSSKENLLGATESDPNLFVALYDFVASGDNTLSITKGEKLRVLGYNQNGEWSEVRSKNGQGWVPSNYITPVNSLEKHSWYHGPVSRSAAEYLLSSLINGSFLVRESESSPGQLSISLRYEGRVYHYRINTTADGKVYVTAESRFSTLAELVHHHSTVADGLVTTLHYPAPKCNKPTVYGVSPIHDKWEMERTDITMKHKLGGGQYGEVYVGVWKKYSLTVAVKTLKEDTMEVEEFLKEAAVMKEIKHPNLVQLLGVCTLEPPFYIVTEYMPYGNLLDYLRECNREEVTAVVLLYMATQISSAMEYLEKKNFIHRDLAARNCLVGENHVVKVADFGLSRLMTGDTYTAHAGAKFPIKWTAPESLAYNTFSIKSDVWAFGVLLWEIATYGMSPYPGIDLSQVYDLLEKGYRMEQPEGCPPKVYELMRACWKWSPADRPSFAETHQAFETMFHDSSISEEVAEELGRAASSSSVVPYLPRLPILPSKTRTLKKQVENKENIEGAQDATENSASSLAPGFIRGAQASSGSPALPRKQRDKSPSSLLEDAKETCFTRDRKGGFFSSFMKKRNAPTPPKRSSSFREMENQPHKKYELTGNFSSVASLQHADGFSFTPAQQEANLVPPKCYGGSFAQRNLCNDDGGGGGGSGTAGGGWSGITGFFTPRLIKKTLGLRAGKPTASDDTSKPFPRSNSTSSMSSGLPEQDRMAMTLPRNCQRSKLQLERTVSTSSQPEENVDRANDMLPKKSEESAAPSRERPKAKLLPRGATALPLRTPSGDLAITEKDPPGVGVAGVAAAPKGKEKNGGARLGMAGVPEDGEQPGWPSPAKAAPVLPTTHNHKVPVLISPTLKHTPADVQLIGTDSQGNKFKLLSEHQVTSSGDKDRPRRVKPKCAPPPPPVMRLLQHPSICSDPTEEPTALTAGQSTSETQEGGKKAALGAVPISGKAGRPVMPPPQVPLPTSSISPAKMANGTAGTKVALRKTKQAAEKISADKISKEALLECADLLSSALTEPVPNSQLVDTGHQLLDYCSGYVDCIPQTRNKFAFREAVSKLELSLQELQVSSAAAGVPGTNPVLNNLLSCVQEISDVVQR", "assay": "Inhibition of human recombinant ARG (48 to end residues) using EAIYAAPFAKKK as substrate incubated for 40 mins in presence of [gamma-33ATP] by radiometric scintillation counting analysis"}, "[4]": {"target": "5'-AMP-activated protein kinase catalytic subunit alpha-1 (Homo sapiens, UniProt Q13131)", "assay": "Inhibition of human full length AMPKalpha1 recombinant using AMARAASAAALAR as substrate incubated for 40 mins in presence of [gamma-33ATP] by radiometric scintillation counting analysis"}, "[5]": {"target": "Serine/threonine-protein kinase BRSK1 (Homo sapiens, UniProt Q8TDC3)", "assay": "Inhibition of recombinant human BRSK1 ( 2 to end residues) using KKKVSRSGLYRSP substrate incubated for 40 mins in presence of [gamma-33ATP] by radiometric scintillation counting analysis"}, "[6]": {"target": "Calcium/calmodulin-dependent protein kinase type 1B (Homo sapiens, UniProt Q6P2M8)", "sequence (Q6P2M8 whole entry)": "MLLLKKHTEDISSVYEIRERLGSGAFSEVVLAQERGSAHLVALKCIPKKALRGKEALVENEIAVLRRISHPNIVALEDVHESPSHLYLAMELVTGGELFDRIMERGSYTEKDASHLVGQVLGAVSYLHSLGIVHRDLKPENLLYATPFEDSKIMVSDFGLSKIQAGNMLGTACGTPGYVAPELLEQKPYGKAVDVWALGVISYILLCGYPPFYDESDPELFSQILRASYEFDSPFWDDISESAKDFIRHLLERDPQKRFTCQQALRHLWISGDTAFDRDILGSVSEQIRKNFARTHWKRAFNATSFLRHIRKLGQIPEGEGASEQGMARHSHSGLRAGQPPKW", "assay": "Inhibition of recombinant full length human CaMK1beta using KKLRRTLSFAEP as substrate incubated for 40 mins in presence of [gamma-33ATP] by radiometric scintillation counting analysis"}, "CDK6/cyclin D3": {"target": "CDK6/cyclin D3 (Homo sapiens, UniProt Q00534)", "assay": "Inhibition of recombinant full length human CDK6/cyclinD3 using histone H1 as substrate incubated for 40 mins in presence of [gamma-33ATP] by radiometric scintillation counting analysis", "type": "protein-complex assay"}, "[7]": {"target": "Tyrosine-protein kinase CSK (Homo sapiens, UniProt P41240)", "sequence (P41240 whole entry)": "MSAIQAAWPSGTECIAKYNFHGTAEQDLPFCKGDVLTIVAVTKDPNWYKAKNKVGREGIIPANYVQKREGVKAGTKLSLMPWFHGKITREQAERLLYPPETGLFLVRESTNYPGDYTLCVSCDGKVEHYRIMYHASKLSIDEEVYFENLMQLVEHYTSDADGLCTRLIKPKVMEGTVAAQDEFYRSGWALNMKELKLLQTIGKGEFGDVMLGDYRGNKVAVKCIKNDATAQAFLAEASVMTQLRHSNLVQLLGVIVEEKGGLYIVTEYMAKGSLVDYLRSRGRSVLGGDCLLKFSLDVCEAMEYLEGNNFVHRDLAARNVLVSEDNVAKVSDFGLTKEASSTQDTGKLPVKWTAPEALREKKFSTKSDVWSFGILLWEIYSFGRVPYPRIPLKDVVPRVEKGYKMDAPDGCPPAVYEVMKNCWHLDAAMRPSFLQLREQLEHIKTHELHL", "assay": "Inhibition of recombinant full length human CSK using poly(Glu, Tyr) 4:1 as substrate incubated 40 mins in presence of [gamma-33ATP] by radiometric scintillation counting analysis"}, "[8]": {"target": "Serine/threonine-protein kinase DCLK2 (Homo sapiens, UniProt Q8N568)", "sequence (Q8N568 whole entry)": "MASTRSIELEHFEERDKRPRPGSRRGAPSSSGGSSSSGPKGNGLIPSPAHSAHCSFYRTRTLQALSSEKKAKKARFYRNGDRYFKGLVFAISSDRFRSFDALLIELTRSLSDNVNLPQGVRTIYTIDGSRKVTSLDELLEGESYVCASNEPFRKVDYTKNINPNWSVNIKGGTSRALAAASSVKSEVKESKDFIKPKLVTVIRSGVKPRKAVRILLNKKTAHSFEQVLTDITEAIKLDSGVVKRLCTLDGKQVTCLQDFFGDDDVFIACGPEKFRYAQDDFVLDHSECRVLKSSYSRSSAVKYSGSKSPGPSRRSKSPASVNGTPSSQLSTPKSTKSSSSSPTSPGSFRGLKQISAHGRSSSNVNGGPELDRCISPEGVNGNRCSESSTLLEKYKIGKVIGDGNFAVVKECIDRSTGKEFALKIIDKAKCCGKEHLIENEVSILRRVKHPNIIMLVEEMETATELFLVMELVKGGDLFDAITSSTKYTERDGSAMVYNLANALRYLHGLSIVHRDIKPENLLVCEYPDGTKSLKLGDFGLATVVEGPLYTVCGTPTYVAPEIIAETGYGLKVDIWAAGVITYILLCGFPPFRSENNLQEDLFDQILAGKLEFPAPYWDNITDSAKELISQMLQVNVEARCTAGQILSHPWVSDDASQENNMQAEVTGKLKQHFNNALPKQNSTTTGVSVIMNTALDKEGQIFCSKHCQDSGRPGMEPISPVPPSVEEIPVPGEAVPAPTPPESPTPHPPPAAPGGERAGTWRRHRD", "assay": "Inhibition of recombinant human DCAMKL2 (376 to end residues) using KKLNRTLSFAEPG as substrate after 40 mins in presence of [gamma-33ATP] by radiometric scintillation counting analysis"}, "[9]": {"target": "RAC-gamma serine/threonine-protein kinase (Homo sapiens, UniProt Q9Y243, S472D)", "assay": "Inhibition of recombinant human PKBgamma S472D mutant (117 to end residues) using GRPRTSSFAEGKK as substrate incubated for 40 mins in presence of [gamma33P]ATP by radiometric scintillation counting analysis"}, "[10]": {"assay": "Inhibition of recombinant full length human PKBalpha S478G mutant using GRPRTSSFAEGKK as substrate incubated for 40 mins in presence of [gamma33P]ATP by radiometric scintillation counting analysis"}, "[11]": {"target": "Serine/threonine-protein kinase Nek1 (Homo sapiens, UniProt Q96PY6)", "assay": "Inhibition of recombinant human NEK1 (1 to 505 residues) using RLGRDKYKTLRQI as substrate measured after 40 mins in presence of [gamma33P]ATP by radiometric scintillation counting analysis"}, "[12]": {"target": "Serine/threonine-protein kinase Nek9 (Homo sapiens, UniProt Q8TD19)", "assay": "Inhibition of recombinant human NEK9 (1 to 324 residues) using myelin basic protein as substrate measured after 40 mins in presence of [gamma33P]ATP by radiometric scintillation counting analysis"}, "[13]": {"target": "Serine/threonine-protein kinase MRCK beta (Homo sapiens, UniProt Q9Y5S2)", "assay": "Inhibition of recombinant human MRCKbeta (1 to 473 residues) using KKRNRTLTV as substrate incubated for 40 mins in presence of [gamma-33ATP by radiometric scintillation counting analysis"}, "[14]": {"target": "Serine/threonine-protein kinase 4 (Homo sapiens, UniProt Q13043)", "sequence (Q13043 whole entry)": "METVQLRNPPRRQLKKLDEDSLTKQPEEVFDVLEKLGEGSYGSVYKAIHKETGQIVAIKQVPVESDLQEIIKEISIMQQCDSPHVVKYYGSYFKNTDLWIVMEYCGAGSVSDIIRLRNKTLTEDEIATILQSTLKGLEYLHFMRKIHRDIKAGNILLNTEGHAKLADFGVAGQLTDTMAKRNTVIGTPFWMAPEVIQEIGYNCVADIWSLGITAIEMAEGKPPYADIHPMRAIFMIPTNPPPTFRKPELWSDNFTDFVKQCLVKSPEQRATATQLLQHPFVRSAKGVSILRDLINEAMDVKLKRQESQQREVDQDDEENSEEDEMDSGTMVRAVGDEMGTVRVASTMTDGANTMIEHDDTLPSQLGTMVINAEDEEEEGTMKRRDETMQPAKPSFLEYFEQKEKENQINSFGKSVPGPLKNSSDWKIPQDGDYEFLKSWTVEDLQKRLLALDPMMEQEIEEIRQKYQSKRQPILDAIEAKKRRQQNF", "assay": "Inhibition of recombinant full-length human MST1 using KKSRGDYMTMQIG as substrate measured after 40 mins in presence of [gamma33P]ATP by radiometric scintillation counting analysis"}, "[15]": {"target": "Serine/threonine-protein kinase pim-2 (Homo sapiens, UniProt Q9P1W9)", "assay": "Inhibition of recombinant human Pim2 (2 to end residues) using RSRHSSYPAGT as substrate incubated for 40 mins in presence of [gamma33P]ATP by radiometric scintillation counting analysis"}, "[16]": {"target": "Serine/threonine-protein kinase PAK 5 (Homo sapiens, UniProt Q9P286)", "sequence (Q9P286 whole entry)": "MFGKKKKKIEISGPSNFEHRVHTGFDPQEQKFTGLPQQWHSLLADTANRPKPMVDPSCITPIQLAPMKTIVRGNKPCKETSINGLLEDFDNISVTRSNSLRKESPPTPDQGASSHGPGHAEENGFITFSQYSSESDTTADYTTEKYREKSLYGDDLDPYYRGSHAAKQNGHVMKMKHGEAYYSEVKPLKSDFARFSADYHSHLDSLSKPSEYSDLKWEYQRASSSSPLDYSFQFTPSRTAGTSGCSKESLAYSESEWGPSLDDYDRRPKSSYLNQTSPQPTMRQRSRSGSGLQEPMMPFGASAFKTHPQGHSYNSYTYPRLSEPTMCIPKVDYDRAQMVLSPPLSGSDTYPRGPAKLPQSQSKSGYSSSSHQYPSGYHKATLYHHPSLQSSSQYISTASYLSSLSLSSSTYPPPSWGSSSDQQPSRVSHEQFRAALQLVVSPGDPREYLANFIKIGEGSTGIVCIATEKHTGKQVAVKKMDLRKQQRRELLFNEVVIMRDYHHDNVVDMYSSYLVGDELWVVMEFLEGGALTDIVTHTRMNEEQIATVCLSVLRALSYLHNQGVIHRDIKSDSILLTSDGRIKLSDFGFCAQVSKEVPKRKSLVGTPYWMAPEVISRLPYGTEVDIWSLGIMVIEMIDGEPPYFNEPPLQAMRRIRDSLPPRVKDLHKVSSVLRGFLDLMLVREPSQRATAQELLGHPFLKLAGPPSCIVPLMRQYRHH", "assay": "Inhibition of recombinant human PAK5 (425 to end residues) using RRRLSFAEPG as substrate measured after 40 mins in presence of [gamma33P]ATP by radiometric scintillation counting analysis"}, "[17]": {"target": "Epidermal growth factor receptor (Homo sapiens, UniProt P00533, L858R)", "assay": "Inhibition of recombinant human EGFR L858R mutant (696 to end residues) using poly(Glu, Tyr) 4:1 as substrate after 40 mins in presence of [gamma-33ATP] by radiometric scintillation counting analysis"}, "Ephrin type-A receptor 5": {"target": "Ephrin type-A receptor 5 (Homo sapiens, UniProt P54756)", "assay": "Inhibition of recombinant human EphA5 (655 to 956 residues) using poly(Glu, Tyr) 4:1 as substrate measured after 40 mins in presence of [gamma33ATP] by radiometric scintillation counting analysis"}, "[18]": {"target": "Homeodomain-interacting protein kinase 3 (Homo sapiens, UniProt Q9H422)", "assay": "Inhibition of human recombinant HIPK3 (161 to 562 residues) using myelin basic protein as substrate after 40 mins by [gamma-33ATP] radiometric assay"}, "[19]": {"target": "Serine/threonine-protein kinase/endoribonuclease IRE1 (Homo sapiens, UniProt O75460)", "assay": "Inhibition of human recombinant IRE1 (465 to end residues) using myelin basic protein as substrate after 40 mins by [gamma-33ATP] by radiometric scintillation counting analysis"}, "[20]": {"assay": "Inhibition of recombinant full length human JNK2alpha2 S51N mutant using ATF2 as substrate after 40 mins by [gamma-33ATP] by radiometric scintillation counting analysis"}, "[21]": {"target": "Tyrosine-protein kinase Lyn (Homo sapiens, UniProt P07948)", "sequence (P07948 whole entry)": "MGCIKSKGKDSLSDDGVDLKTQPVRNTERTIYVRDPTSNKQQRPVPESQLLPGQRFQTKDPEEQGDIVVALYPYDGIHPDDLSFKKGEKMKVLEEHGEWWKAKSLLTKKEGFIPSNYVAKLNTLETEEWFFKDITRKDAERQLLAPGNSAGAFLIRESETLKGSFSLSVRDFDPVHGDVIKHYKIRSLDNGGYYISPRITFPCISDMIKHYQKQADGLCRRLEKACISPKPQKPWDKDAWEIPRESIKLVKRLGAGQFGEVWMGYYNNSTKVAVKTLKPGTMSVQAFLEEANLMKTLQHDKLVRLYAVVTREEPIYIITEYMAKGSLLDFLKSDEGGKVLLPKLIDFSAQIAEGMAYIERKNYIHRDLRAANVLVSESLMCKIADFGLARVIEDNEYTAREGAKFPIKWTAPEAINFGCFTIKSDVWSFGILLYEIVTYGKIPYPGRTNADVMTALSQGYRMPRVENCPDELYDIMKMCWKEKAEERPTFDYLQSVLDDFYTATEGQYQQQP", "assay": "Inhibition of recombinant full length human Lyn using poly(Glu, Tyr) 4:1 as substrate after 40 mins in presence of [gamma-33ATP] by radiometric scintillation counting analysis"}, "[22]": {"target": "Serine/threonine-protein kinase TAO2 (Homo sapiens, UniProt Q9UL54)", "assay": "Inhibition of recombinant human TAO2 (1 to 320 residues) using myelin basic protein as substrate incubated for 40 mins in presence of [gamma33P]ATP by radiometric scintillation counting analysis"}, "[23]": {"target": "TRAF2 and NCK-interacting protein kinase (Homo sapiens, UniProt Q9UKE5)", "assay": "Inhibition of human TNIK (1 to 367 residues) using RLGRDKYKTLRQI as substrate incubated for 40 mins in presence of [gamma33P]ATP by radiometric scintillation counting analysis"}, "[24]": {"target": "Testis-specific serine/threonine-protein kinase 3 (Homo sapiens, UniProt Q96PN8)", "sequence (Q96PN8 whole entry)": "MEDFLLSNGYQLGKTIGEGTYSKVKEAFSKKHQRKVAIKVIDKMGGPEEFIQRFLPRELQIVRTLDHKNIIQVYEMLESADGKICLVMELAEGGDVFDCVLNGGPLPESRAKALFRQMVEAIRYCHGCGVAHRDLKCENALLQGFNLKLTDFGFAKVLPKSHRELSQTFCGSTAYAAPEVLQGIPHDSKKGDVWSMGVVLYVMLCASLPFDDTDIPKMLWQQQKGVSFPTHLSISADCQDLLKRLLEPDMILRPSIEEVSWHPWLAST", "assay": "Inhibition of recombinant full-length human TSSK3 using AMARAASAAALAR as substrate incubated for 40 mins in presence of [gamma33P]ATP by radiometric scintillation counting analysis"}}}
{"molecule": "CN(C)c1ccc(C(=O)Nc2cccc(NC(=O)COc3ccc4c(=O)ccoc4c3)c2)cc1", "values": [{"measurement": "solubility thermodynamic", "setting": "[1]", "value": 0.634, "unit": "µg/mL"}, {"measurement": "IC50", "setting": "[2]", "value": "> 10", "unit": "µM"}, {"measurement": "IC50", "setting": "[3]", "value": "> 10", "unit": "µM"}, {"measurement": "IC50", "setting": "[4]", "value": "> 10", "unit": "µM"}, {"measurement": "IC50", "setting": "[5]", "value": "> 10", "unit": "µM"}, {"measurement": "IC50", "setting": "[6]", "value": "> 10", "unit": "µM"}, {"measurement": "IC50", "setting": "CDK6/cyclin D3", "value": "> 10", "unit": "µM"}, {"measurement": "IC50", "setting": "[7]", "value": "> 10", "unit": "µM"}, {"measurement": "IC50", "setting": "[8]", "value": "> 10", "unit": "µM"}, {"measurement": "IC50", "setting": "[9]", "value": "> 10", "unit": "µM"}, {"measurement": "IC50", "setting": "[10]", "value": "> 10", "unit": "µM"}, {"measurement": "IC50", "setting": "[11]", "value": "> 10", "unit": "µM"}, {"measurement": "IC50", "setting": "[12]", "value": "> 10", "unit": "µM"}, {"measurement": "IC50", "setting": "[13]", "value": "> 10", "unit": "µM"}, {"measurement": "IC50", "setting": "[14]", "value": "> 10", "unit": "µM"}, {"measurement": "IC50", "setting": "[15]", "value": "> 10", "unit": "µM"}, {"measurement": "IC50", "setting": "[16]", "value": "> 10", "unit": "µM"}, {"measurement": "IC50", "setting": "[17]", "value": "> 10", "unit": "µM"}, {"measurement": "IC50", "setting": "Ephrin type-A receptor 5", "value": "> 10", "unit": "µM"}, {"measurement": "IC50", "setting": "[18]", "value": "> 10", "unit": "µM"}, {"measurement": "IC50", "setting": "[19]", "value": "> 10", "unit": "µM"}, {"measurement": "IC50", "setting": "[20]", "value": "> 10", "unit": "µM"}, {"measurement": "IC50", "setting": "[21]", "value": "> 10", "unit": "µM"}, {"measurement": "IC50", "setting": "[22]", "value": "> 10", "unit": "µM"}, {"measurement": "IC50", "setting": "[23]", "value": "> 10", "unit": "µM"}, {"measurement": "IC50", "setting": "[24]", "value": "> 10", "unit": "µM"}]}
